Data taken from patent US20150299233A1, “COMPOSITIONS AND METHODS COMPRISING RHENIUM FOR THE TREATMENT OF CANCERS” (Massachusetts Institute of Technology, priority 2014, published 2015).
Like-named read-outs stand apart in the source and are kept apart here.

Columns and labels:
A549 cells [1] = experiment: Intracellular ROS assay (DCFH-DA, flow cytometry); type: cell-based, human; details: 1, 2, shikonin 20 μM for 12 h; H2O2 1 mM for 1 h
Experimental: Characterization of Necroptotic Features. Having established that necrosome formation is a determinant of 1 and 2 activity, additional studies were performed to understand the cascade of events leading from necrosome formation to cell death. Necrosomes generate abnormally high levels of mitochondrial ROS, leading to ATP depletion and eventual degradation of the mitochondrial membrane potential. With this fact in mind, intracellular ROS production was quantified by flow cytometry using 6-carboxy-2′,7′-dichlorodihydrofluorescein diacetate (DCFH-DA), a well-established ROS indicator.
In FIG. 2: (A) Representative histograms displaying the green fluorescence emitted by DCFH-DA-stained A549 cells (i) and A549 cells treated with 1(20 μM for 12 h) (iii) or 1 (20 μM for 12 h) with nectrostatin-1 (60 μM for 12 h) (ii). (B) Representative histograms displaying the green fluorescence emitted by DCFH-DA-stained A549 cells (i) and A549 cells treated with 2 (20 μM for 12 h) (iii) or 2 (20 μM for 12 h) with nectrostatin-1 (60 μM for 12 h) (ii). (C) Representative histograms displaying the green fluorescence emitted by DCFH-DA-stained A549 cells (i) and A549 cells treated withH2O2 (1mM for 1 h) (iii). (D) Representative histograms displaying the green fluorescence emitted by DCFH-DA-stained A549 cells (i) and A549 cells treated with shikonin (20 μM for 12 h) (iii).
Intracellular ROS Assay. Untreated and treated A549 cells (1.5×10^6 cells/well) grown in six-well plates were incubated with 6-carboxy-2′,7′-dichlorodihydrofluorescein diacetate (20 μM) for 30 min. The cells were then washed with PBS (1 mL x 3), harvested, and analyzed by using a FACSCalibur-HTS flow cytometer (BD Biosciences) (20 000 events per sample were acquired). The FL1 channel was used to assess intracellular ROS levels. Cell populations were analyzed using the FlowJo software (Tree Star).

A549 cells [2] = experiment: MTT cytotoxicity assay, A549 cells; type: cell-based, human
Experimental: (§1) In vitro toxicity of the rhenium (v) oxo complexes, 1 and 2 towards a panel of human cell lines was determined using the colorimetic MTT [[3-(4,5-dimethylithiazol-2-yl)-2,5-diphenyltetrazolium bromide] assay.
(§2) The in vitro effect of rhenium(V) oxo complexes 1 and 2 toward a panel of human cell lines was determined by the colorimetric MTT [3-(4,5-dimethylthiazol-2-yl)-2,5-diphenyltetrazolium bromide] assay. […] The IC50 values, or concentration required to induce 50% cell death, were derived from dose—response curves and are summarized in Table 1.
(§3) Cells (2×10^3 cells/well) were seeded in a 96-well plate. […] 1 and 2 were prepared as 10 mM solutions in DMSO and diluted using media. The final concentration of DMSO in each well was 0.5%, and this amount was also present in the untreated control. After 72 h, the medium was removed, 200 μL of a 0.4 mg/mL solution of MTT in DMEM, RPMI, or McCoy's 5A was added, and the plate was incubated for an additional 1-2 h. The DMEM/MTT, RPMI/MTT, or McCoy's 5A/MTT mixture was aspirated, and 200 μL of DMSO was added to dissolve the resulting purple formazan crystals. The absorbance of the solution wells was read at 550 nm. Absorbance values were normalized to DMSO-containing control wells and plotted as the concentration of test compound versus % cell viability. IC50 values were interpolated from the resulting dose-dependent curves. The reported IC50 values are the average from at least three independent experiments, each of which consisted of six replicates per concentration level.

[3] = test system: HeLa cervical adenocarcinoma cells; experiment: MTT cytotoxicity assay, HeLa cells; type: cell-based, human
U2OS [4] = experiment: MTT cytotoxicity assay, U2OS cells; type: cell-based, human; details: Table A; average of three independent determinations; read-out: IC50 U2OS (bone)
[5] = test system: cisplatin-sensitive cells (A2780); experiment: MTT cytotoxicity assay, A2780 cells; type: cell-based, human; details: Table A; average of three independent determinations; read-out: IC50 A2780 (ovarian)
[6] = test system: cisplatin-resistant ovarian carcinoma cells (A2780CP70); experiment: MTT cytotoxicity assay, A2780CP70 cells; type: cell-based, human
MRC-5 [7] = experiment: MTT cytotoxicity assay, MRC-5 normal lung fibroblasts; type: cell-based, human; details: Table A; average of three independent determinations; read-out: IC50 MRC5 (lung normal)
Experimental: as §1, §2, §3

NTERA-2 = experiment: MTT cytotoxicity assay, NTERA-2 cells; type: cell-based, human; details: Table 1; 72 h exposure; ± standard deviation; read-out: IC50 NTERA-2 testis carcinoma
[8] = test system: HT-29 (colorectal adenocarcinoma); experiment: MTT cytotoxicity assay, HT-29 cells; type: cell-based, human; details: Table 2; cisplatin-resistant cell line; 72 h exposure
Experimental: Cytotoxicity MTT Assay. […] Cells (2×10^3 cells/well) were seeded in a 96-well plate. […] The final concentration of DMSO in each well was 0.5%, and this amount was also present in the untreated control. After 72 h, the medium was removed, 200 μL of a 0.4 mg/mL solution of MTT in DMEM, RPMI, or McCoy's 5A was added, and the plate was incubated for an additional 1-2 h. The DMEM/MTT, RPMI/MTT, or McCoy's 5A/MTT mixture was aspirated, and 200 μL of DMSO was added to dissolve the resulting purple formazan crystals. The absorbance of the solution wells was read at 550 nm. Absorbance values were normalized to DMSO-containing control wells and plotted as the concentration of test compound versus % cell viability. IC50 values were interpolated from the resulting dose-dependent curves. The reported IC50 values are the average from at least three independent experiments, each of which consisted of six replicates per concentration level.

[9] = test system: MDA-MB-231 (breast adenocarcinoma); experiment: MTT cytotoxicity assay, MDA-MB-231 cells; type: cell-based, human; details: Table 2; cisplatin-resistant cell line; 72 h exposure; read-out: IC50 MDA-M8-231 breast adenocarcinoma
[10] = test system: MCF-7 (breast adenocarcinoma); experiment: MTT cytotoxicity assay, MCF-7 cells; type: cell-based, human; details: Table 2; cisplatin-resistant cell line; 72 h exposure
[11] = test system: PC-3 (prostate adenocarcinoma); experiment: MTT cytotoxicity assay, PC-3 cells; type: cell-based, human; details: Table 2; cisplatin-resistant cell line; 72 h exposure
[12] = test system: DU 145 (prostate carcinoma); experiment: MTT cytotoxicity assay, DU 145 cells; type: cell-based, human; details: Table 2; cisplatin-resistant cell line; 72 h exposure; read-out: IC50 DU 14S prostate carcinoma
confluent A549 cells = experiment: MTT cytotoxicity assay, confluent A549 cells; type: cell-based, human; details: Table 2; confluent cells; 72 h exposure; read-out: IC50 A549 (confluent) lung carcinoma
U2OS [13] = details: Table 1; 72 h exposure; value taken from ref 4S; read-out: IC50 U2OS bone osteosarcoma; cited from earlier work
[14] = test system: cisplatin-sensitive cells (A2780); details: Table 1; 72 h exposure; value taken from ref 4S; read-out: IC50 A2780 ovarian carcinoma; cited from earlier work
MRC-5 [15] = details: Table 1; 72 h exposure; value taken from ref 4S; read-out: IC50 MRC-5 lung fibroblast; cited from earlier work

OO [Compound H2O2, H2O2, reference compound]
intracellular ROS versus untreated control cells (A549 cells [1]): significantly higher levels of measurable ROS

N.N.[Cl][Pt][Cl] [cisplatin, reference compound]
IC50 (A549 cells [2]; Table 1, 72 h exposure, ± standard deviation, read-out: IC50 A549 lung carcinoma): 3.23 ± 0.467 µM | IC50 (A549 cells [2]; Table A, average of three independent determinations, read-out: IC50 A549 (lung)): 2.74 ± 0.006 µM | IC50 ([3]; Table 1, 72 h exposure, ± standard deviation, read-out: IC50 HeLa cervical adenocarcinoma): 4.1 ± 0.113 µM | IC50 ([3]; Table A, average of three independent determinations, read-out: IC50 HeLa (cervical)): 4.1 ± 0.011 µM | IC50 (U2OS [4]): 4.6 ± 0.6 µM | IC50 [5]: 1.41 ± 0.037 µM | IC50 ([6]; Table 1, 72 h exposure, ± standard deviation, read-out: IC50 A2780CP70 ovarian carcinoma): 8.42 ± 0.205 µM | IC50 ([6]; Table A, average of three independent determinations, read-out: IC50 A280CP70 (ovarian)): 8.42 ± 0.205 µM | IC50 (MRC-5 [7]): 11.1 ± 1.33 µM | IC50 (NTERA-2): 0.385 ± 0.049 µM | IC50 [8]: 29.6 ± 1.33 µM | IC50 [9]: 43.6 ± 7.07 µM | IC50 [10]: 9.74 ± 0.537 µM | IC50 [11]: 10.2 ± 0.919 µM | IC50 [12]: > 100 µM | IC50 (confluent A549 cells): 9.42 ± 1.94 µM | IC50 (U2OS [13]): 4.6 ± 0.6 µM | IC50 [14]: 0.7 ± 0.2 µM | IC50 (MRC-5 [15]): 5.3 ± 0.6 µM
